pIC50: −log10 of the molar value.

Assay [1] has as its target T1, c-Met (cytoplasmic domain) (Homo sapiens, UniProt P08581).
T1 construct: 10 ng/mL c-Met (cytoplasmic domain, Invitrogen Corporation #PV3143); purchased Invitrogen Corporation PV3143
The experiment in a line: c-Met Kinase Assay (same methods as for ALK, with modifications). It counts as biochemical. The conditions noted are these: c-Met kinase inhibition, 1 μM ATP; read-out: cMet Activity. The procedure, abridged: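 Steps: coat wells with PLC-γ (10 μg/mL, Tris-buffered saline); add 10 ng/mL c-Met cytoplasmic domain to initiate; incubate 15 min, 37° C; detect phosphoproduct via Eu-N1 PT66 antibody.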

For assay [2], the target named is T2, baculovirus-expressed ALK (Homo sapiens, UniProt Q9UM73).
T2 construct: host or cells: baculovirus expression system
In words: ALK Kinase Assay (ELISA-type, time-resolved fluorescence). It counts as biochemical. The note with it: ALK kinase inhibition, 1 μM ATP; read-out: ALK Activity. The procedure, abridged:
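Wells were coated with phospholipase C-γ at 10 μg/mL in Tris-buffered saline. Adding 30 ng/ml enzyme started the reaction, which ran at 37° C for 15 minutes before Eu-N1 PT66 antibody detection. Percent inhibition versus log10 concentration gave IC50 by variable-slope fit.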
Background: An ELISA detects its analyte on a solid surface through an enzyme-linked reagent.

T1 sequence (P08581 956-1390 limits assumed): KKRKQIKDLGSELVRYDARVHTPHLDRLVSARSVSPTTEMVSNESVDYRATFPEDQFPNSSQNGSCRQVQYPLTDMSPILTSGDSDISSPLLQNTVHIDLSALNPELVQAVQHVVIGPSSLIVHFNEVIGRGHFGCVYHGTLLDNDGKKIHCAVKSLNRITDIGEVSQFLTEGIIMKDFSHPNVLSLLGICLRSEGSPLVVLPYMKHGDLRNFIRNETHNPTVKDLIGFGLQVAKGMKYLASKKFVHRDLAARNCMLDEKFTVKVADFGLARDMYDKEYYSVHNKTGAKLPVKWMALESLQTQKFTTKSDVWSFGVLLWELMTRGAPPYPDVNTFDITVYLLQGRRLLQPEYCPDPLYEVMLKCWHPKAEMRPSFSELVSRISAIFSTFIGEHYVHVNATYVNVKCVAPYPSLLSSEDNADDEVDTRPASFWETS
T2 sequence (Q9UM73 19-1620): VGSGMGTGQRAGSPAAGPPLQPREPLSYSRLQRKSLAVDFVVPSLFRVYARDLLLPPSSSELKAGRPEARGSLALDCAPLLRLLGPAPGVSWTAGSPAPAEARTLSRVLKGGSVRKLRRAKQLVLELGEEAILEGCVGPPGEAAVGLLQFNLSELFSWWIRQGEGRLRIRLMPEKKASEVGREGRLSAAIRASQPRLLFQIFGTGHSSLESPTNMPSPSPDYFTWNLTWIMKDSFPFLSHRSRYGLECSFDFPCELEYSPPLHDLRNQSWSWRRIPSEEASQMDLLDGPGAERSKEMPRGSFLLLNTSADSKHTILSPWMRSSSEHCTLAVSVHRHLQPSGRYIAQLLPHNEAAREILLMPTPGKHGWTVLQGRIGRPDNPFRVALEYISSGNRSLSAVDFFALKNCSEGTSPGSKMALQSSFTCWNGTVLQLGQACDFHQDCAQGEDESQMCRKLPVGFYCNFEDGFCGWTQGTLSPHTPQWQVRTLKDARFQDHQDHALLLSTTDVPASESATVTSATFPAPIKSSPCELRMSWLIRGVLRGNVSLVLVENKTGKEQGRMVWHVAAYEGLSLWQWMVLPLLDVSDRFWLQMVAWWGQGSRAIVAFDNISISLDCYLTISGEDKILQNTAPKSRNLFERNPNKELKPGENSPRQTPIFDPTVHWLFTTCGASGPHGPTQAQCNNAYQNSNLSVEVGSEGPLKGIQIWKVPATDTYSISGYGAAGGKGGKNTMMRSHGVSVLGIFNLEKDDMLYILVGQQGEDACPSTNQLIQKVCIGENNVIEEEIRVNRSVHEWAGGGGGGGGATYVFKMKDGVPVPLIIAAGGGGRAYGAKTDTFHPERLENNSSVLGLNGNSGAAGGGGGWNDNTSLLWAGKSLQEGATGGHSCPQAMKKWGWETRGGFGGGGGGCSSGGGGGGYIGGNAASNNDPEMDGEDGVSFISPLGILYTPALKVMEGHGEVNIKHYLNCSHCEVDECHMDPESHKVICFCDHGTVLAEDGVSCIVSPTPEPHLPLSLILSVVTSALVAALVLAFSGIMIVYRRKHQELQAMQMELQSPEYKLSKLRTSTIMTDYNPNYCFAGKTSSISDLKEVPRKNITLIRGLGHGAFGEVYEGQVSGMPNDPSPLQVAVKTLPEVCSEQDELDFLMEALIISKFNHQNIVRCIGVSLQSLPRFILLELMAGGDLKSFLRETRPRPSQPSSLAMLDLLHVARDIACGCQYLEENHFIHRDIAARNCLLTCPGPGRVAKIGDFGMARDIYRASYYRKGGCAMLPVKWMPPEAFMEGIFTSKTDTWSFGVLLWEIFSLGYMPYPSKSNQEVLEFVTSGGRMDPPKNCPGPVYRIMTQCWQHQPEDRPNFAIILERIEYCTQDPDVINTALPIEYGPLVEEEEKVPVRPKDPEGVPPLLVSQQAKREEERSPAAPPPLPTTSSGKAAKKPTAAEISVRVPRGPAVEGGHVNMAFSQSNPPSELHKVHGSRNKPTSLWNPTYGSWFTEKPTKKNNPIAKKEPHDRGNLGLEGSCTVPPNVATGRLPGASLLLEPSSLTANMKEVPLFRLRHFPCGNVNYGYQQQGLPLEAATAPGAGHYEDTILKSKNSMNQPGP

As for `COc1cc2c(cc1Nc1ncc(Cl)c(N[C@@H]3CCCC[C@H]3NS(C)(=O)=O)n1)NC(=O)CNC2` [Example 1655, N-{(1R,2R)-2-[5-Chloro-2-(7-methoxy-2-oxo-2,3,4,5-tetrahydro-1H-benzo[e][1,4]diazepin-8-ylamino)-pyrimidin-4-ylamino]-cyclohexyl}-methanesulfonamide], the pIC50 in assay [1] is < 5.00; in assay [2], > 7.00.

Consider `COc1cc2c(cc1Nc1ncc(Cl)c(Nc3ccccc3S(=O)(=O)N(C)C)n1)N(CC(=O)N(C)C)C(=O)CN(CC(=O)N(C)C)C2` [Example 1656, 2-{8-[5-Chloro-4-(2-dimethylsulfamoyl-phenylamino)-pyrimidin-2-ylamino]-1-dimethylcarbamoylmethyl-7-methoxy-2-oxo-1,2,3,5-tetrahydro-benzo[e][1,4]diazepin-4-yl}-N,N-dimethyl-acetamide], for which the values for the pIC50 in assay [1] and in assay [2] were < 5.00 and 6.00 to 7.00, respectively.

Regarding `COc1cc2c(cc1Nc1ncc(Cl)c(N[C@@H]3CCCC[C@H]3NS(C)(=O)=O)n1)NC(=O)CN(C(C)=O)C2` [Example 1657, N-{(1R,2R)-2-[2-(4-Acetyl-7-methoxy-2-oxo-2,3,4,5-tetrahydro-1H-benzo[e][1,4]di-azepin-8-ylamino)-5-chloro-pyrimidin-4-ylamino]-cyclohexyl}-methanesulfonamide], the pIC50 in assay [1] was < 5.00; in assay [2], > 7.00.

On to `CCN1CC(=O)Nc2cc(Nc3ncc(Cl)c(N[C@@H]4CCCC[C@H]4NS(C)(=O)=O)n3)c(OC)cc2C1` [Example 1658, N-{(1R,2R)-2-[5-Chloro-2-(4-ethyl-7-methoxy-2-oxo-2,3,4,5-tetrahydro-1H-benzo[e][1,4]diazepin-8-ylamino)-pyrimidin-4-ylamino]-cyclohexyl}-methane-sulfonamide], for which the values for the pIC50 in assay [1] and in assay [2] were < 5.00 and > 7.00, respectively.

With `CCN1CC(=O)Nc2cc(Nc3ncc(Cl)c(Nc4ccccc4S(=O)(=O)N(C)C)n3)c(OC)cc2C1` [Example 1659, 2-[5-Chloro-2-(4-ethyl-7-methoxy-2-oxo-2,3,4,5-tetrahydro-1H-benzo[e][1,4]diazepin-8-ylamino)-pyrimidin-4-ylamino]-N,N-dimethyl-benzenesulfonamide], the pIC50 in assay [1] is < 5.00; in assay [2] it was > 7.00.

Take `CCN1CC(=O)Nc2cc(Nc3ncc(Cl)c(Nc4ccccc4S(=O)(=O)C(C)C)n3)c(OC)cc2C1` [Example 1660, 8-{5-Chloro-4-[2-(propane-2-sulfonyl)-phenylamino]-pyrimidin-2-ylamino}-4-ethyl-7-methoxy-1,3,4,5-tetrahydro-benzo[e][1,4]diazepin-2-one]: the pIC50 in assay [1] was < 5.00; in assay [2], > 7.00.

On to `CCN1CC(=O)Nc2cc(Nc3ncc(Cl)c(Nc4ccc(N5CCOCC5)cc4OC)n3)c(OC)cc2C1` [Example 1661, 8-[5-Chloro-4-(2-methoxy-4-morpholin-4-yl-phenylamino)-pyrimidin-2-ylamino]-4-ethyl-7-methoxy-1,3,4,5-tetrahydro-benzo[e][1,4]diazepin-2-one], for which the figures for the pIC50 in assay [1] and in assay [2] were < 5.00 and > 7.00, respectively.

With `CCN1CC(=O)Nc2cc(Nc3ncc(Cl)c(Nc4ccc(OC)cc4-n4cccn4)n3)c(OC)cc2C1` [Example 1662, 8-[5-Chloro-4-(4-methoxy-2-pyrazol-1-yl-phenylamino)-pyrimidin-2-ylamino]-4-ethyl-7-methoxy-1,3,4,5-tetrahydro-benzo[e][1,4]diazepin-2-one], the pIC50 in assay [1] was < 5.00; in assay [2], > 7.00.

Consider `CCN1CC(=O)Nc2cc(Nc3ncc(Cl)c(N[C@H]4[C@@H](C(N)=O)[C@@H]5C=C[C@H]4C5)n3)c(OC)cc2C1` [Example 1663, (1S,2S,3R,4R)-3-[5-Chloro-2-(4-ethyl-7-methoxy-2-oxo-2,3,4,5-tetrahydro-1H-benzo[e][1,4]diazepin-8-ylamino)-pyrimidin-4-ylamino]-bicyclo-[2.2.1]hept-5-ene-2-carboxylic acid amide], for which the pIC50 in assay [1] is < 5.00; in assay [2], > 7.00.

`COCCN1CC(=O)Nc2cc(Nc3ncc(Cl)c(N[C@@H]4CCCC[C@H]4NS(C)(=O)=O)n3)c(OC)cc2C1` [Example 1664, N-(1R,2R)-(2-{5-Chloro-2-[7-methoxy-4-(2-methoxy-ethyl)-2-oxo-2,3,4,5-tetrahydro-1H-benzo[e][1,4]diazepin-8-ylamino]-pyrimidin-4-ylamino}-cyclohexyl)-methanesulfonamide]: the results for the pIC50 in assay [1] and in assay [2] were < 5.00 and > 7.00, respectively.

Consider `COCCN1CC(=O)Nc2cc(Nc3ncc(Cl)c(N[C@H]4[C@@H](C(N)=O)[C@@H]5C=C[C@H]4C5)n3)c(OC)cc2C1` [Example 1665, (1S,2S,3R,4R)-3-{5-Chloro-2-[7-methoxy-4-(2-methoxy-ethyl)-2-oxo-2,3,4,5-tetrahydro-1H-benzo[e][1,4]diazepin-8-ylamino]-pyrimidin-4-ylamino}-bicyclo[2.2.1]hept-5-ene-2-carboxylic acid amide], for which the pIC50 in assay [1] was < 5.00; in assay [2] it was > 7.00.

Turning to `COc1cc2c(cc1Nc1ncc(Cl)c(N[C@@H]3CCCC[C@H]3NS(C)(=O)=O)n1)NC(=O)CN(CC1CC1)C2` [Example 1666, N-(1R,2R)-{2-[5-Chloro-2-(4-cyclopropylmethyl-7-methoxy-2-oxo-2,3,4,5-tetrahydro-1H-benzo[e][1,4]diazepin-8-ylamino)-pyrimidin-4-ylamino]-cyclohexyl}-methanesulfonamide], the pIC50 in assay [1] is < 5.00; in assay [2], > 7.00.

Consider `COc1cc2c(cc1Nc1ncc(Cl)c(N[C@H]3[C@@H](C(N)=O)[C@@H]4C=C[C@H]3C4)n1)NC(=O)CN(CC1CC1)C2` [Example 1667, (1S,2S,3R,4R)-3-[5-Chloro-2-(4-cyclopropylmethyl-7-methoxy-2-oxo-2,3,4,5-tetrahydro-1H-benzo[e][1,4]diazepin-8-ylamino)-pyrimidin-4-ylamino]-bicyclo[2.2.1]hept-5-ene-2-carboxylic acid amide], for which the pIC50 in assay [1] is < 5.00; in assay [2], > 7.00.

As to `COc1cc2c(cc1Nc1ncc(Cl)c(Nc3ccccc3S(=O)(=O)N3CCCC3)n1)NC(=O)CN(CC1CC1)C2` [Example 1668, 8-{5-Chloro-4-[2-(pyrrolidine-1-sulfonyl)-phenylamino]-pyrimidin-2-ylamino}-4-cyclopropylmethyl-7-methoxy-1,3,4,5-tetrahydro-benzo[e][1,4]diazepin-2-one], the pIC50 is 5.00 to 6.00 in assay [1] and > 7.00 in assay [2].

For `CNC(=O)c1ccccc1Nc1nc(Nc2cc3c(cc2OC)NC(=O)CCC3(C)C)ncc1Cl` [Example 1671, 2-[5-Chloro-2-(8-methoxy-5,5-dimethyl-2-oxo-2,3,4,5-tetrahydro-1H-benzo[b]azepin-7-ylamino)-pyrimidin-4-ylamino]-N-methyl-benzamide], the pIC50 in assay [1] is 5.00 to 6.00; in assay [2] it was > 7.00.

For `COc1cc2c(cc1Nc1ncc(Cl)c(Nc3ccc(N4CCOCC4)cc3OC)n1)C(C)(C)CCC(=O)N2` [Example 1672, 7-[5-Chloro-4-(2-methoxy-4-morpholin-4-yl-phenylamino)-pyrimidin-2-ylamino]-8-methoxy-5,5-dimethyl-1,3,4,5-tetrahydro-benzo[b]azepin-2-one], the pIC50 in assay [1] is < 5.00; in assay [2], 6.00 to 7.00.

In the case of `COc1cc2c(cc1Nc1ncc(Cl)c(N[C@H]3[C@@H](C(N)=O)[C@@H]4C=C[C@H]3C4)n1)CCN(C[C@H](O)C(F)(F)F)CC2` [Example 1673, (1S,2S,3R,4R)-3-{5-Chloro-2-[8-methoxy-3-((S)-3,3,3-trifluoro-2-hydroxy-propyl)-2,3,4,5-tetrahydro-1H-benzo[d]azepin-7-ylamino]-pyrimidin-4-ylamino}-bicyclo[2.2.1]hept-5-ene-2-carboxylic acid amide], the pIC50 in assay [1] was < 5.00; in assay [2], > 7.00.

Regarding `CN([C@@H]1CCCC[C@H]1Nc1nc(Nc2ccc3c(c2)C(C)(C)CCC(=O)N3)ncc1Cl)S(C)(=O)=O` [Example 1674, N-{(1R,2R)-2-[5-Chloro-2-(5,5-dimethyl-2-oxo-2,3,4,5-tetrahydro-1H-benzo[b]azepin-7-ylamino)-pyrimidin-4-ylamino]-cyclohexyl}-N-methyl-methanesulfonamide], the pIC50 in assay [1] is 5.00 to 6.00; in assay [2] it was > 7.00.

As for `CCN([C@@H]1CCCC[C@H]1Nc1nc(Nc2ccc3c(c2)C(C)(C)CCC(=O)N3)ncc1Cl)S(C)(=O)=O` [Example 1675, N-{(1R,2R)-2-[5-Chloro-2-(5,5-dimethyl-2-oxo-2,3,4,5-tetrahydro-1H-benzo[b]azepin-7-ylamino)-pyrimidin-4-ylamino]-cyclohexyl}-N-ethyl-methanesulfonamide], the values for the pIC50 in assay [1] and in assay [2] were 5.00 to 6.00 and > 7.00, respectively.

For the compound `COCCN1CCc2cc(Nc3ncc(Cl)c(N[C@@H]4CCCC[C@H]4N(C)S(C)(=O)=O)n3)c(OC)cc2CC1` [Example 1676, N-((1R,2R)-2-{5-Chloro-2-[8-methoxy-3-(2-methoxy-ethyl)-2,3,4,5-tetrahydro-1H-benzo[d]azepin-7-ylamino]-pyrimidin-4-ylamino}-cyclohexyl)-N-methyl-methanesulfonamide], the pIC50 in assay [1] is < 5.00; in assay [2] it was > 7.00.

On to `CCN([C@@H]1CCCC[C@H]1Nc1nc(Nc2cc3c(cc2OC)CCN(CCOC)CC3)ncc1Cl)S(C)(=O)=O` [Example 1677, N-((1R,2R)-2-{5-Chloro-2-[8-methoxy-3-(2-methoxy-ethyl)-2,3,4,5-tetrahydro-1H-benzo[d]azepin-7-ylamino]-pyrimidin-4-ylamino}-cyclohexyl)-N-ethyl-methanesulfonamide], for which the pIC50 was < 5.00 in assay [1] and > 7.00 in assay [2].

(Values after US8148391B2 (Cephalon, Inc., priority 2006, dated 2012).)
